Values quoted from earlier work as cited in patent US20070202050A1, “Pharmaceutical Formulations” (priority 2006, published 2007).

Assays:
[1] = topically active steroid
[2] = system: symptoms associated with chronic nasal congestion
[3] = system: secretions of natural tear components; conditions: preclinical testing

SMILES: C[C@@H]1C[C@H]2[C@@H]3CCC4=CC(=O)C=C[C@]4(C)[C@@]3(Cl)[C@@H](O)C[C@]2(C)[C@@]1(OC(=O)c1ccco1)C(=O)CCl [Mometasone Furoate]
- bioavailability [1]: not readily bioavailable

SMILES: Cc1cc(CCCOc2c(C)cc(-c3noc(C(F)(F)F)n3)cc2C)on1 [Pleconaril, 1,2,4-oxadiazole3-[3,5-Dimethyl-4-[3-(3-methyl-5-isoxazolyl)propoxy]phenyl]-5-(trifluoremethyl)]
- activity against rhinoviruses (rhinoviruses): active against rhinoviruses
- solubility in water / aqueous solvents: insoluble
- solubility in liquids (for example corn oil and ethanol): soluble only in liquids of low polarity

SMILES: Oc1cccc(Nc2ncc(F)c(Nc3cccc(O)c3)n2)c1 [R112]
- absolute difference over placebo [2]: 9%
- improvement from baseline measurements (prior to drug initiation) [2]: up to 38%
- relative improvement over placebo [2]: greater than 20%

SMILES: O=c1ccn([C@@H]2O[C@H](COP(=O)(O)OP(=O)(O)OP(=O)(O)OP(=O)(O)OC[C@H]3O[C@@H](n4ccc(=O)[nH]c4=O)[C@H](O)[C@@H]3O)[C@@H](O)[C@H]2O)c(=O)[nH]1 [diquafosol]
- effect on secretions of natural tear components [3]: increased the secretions of natural tear components
